Data as given in US8507411B2, “Neoglycorandomization and digitoxin analogs” (priority 2004, dated 2013).
pIC50: −log10 of the molar value. Read-outs that look alike come from different tables or passages of the source.

Tests used:
[1] = system: NmuMG; test: cells; assay type: cell-based, mouse
How it was run: (§1)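 Plated cells received compound dilutions after 1 h attachment and sat 72 h at 37 °C, 5% CO2. Serum was washed off with PBS before calcein AM staining, since serum esterases interfere. Four-parameter fits with variable Hill slope gave IC50s.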

[2] = system: NCI-H460; test: High-throughput calcein AM cytotoxicity assay, NCI-H460; assay type: cell-based, human; conditions: NCI-H460 cells
Excerpt: (§2) Standard errors are depicted with error bars.

[3] = system: SF-268; test: cells; assay type: cell-based, human; conditions: SF-268 cells
How it was run: as §1

[4] = system: NCI/ADR-RES; test: cells; assay type: cell-based, human; conditions: NCI/ADR-RES cells
How it was run: as §1

[5] = system: SK-OV-3; test: cells; assay type: cell-based, human; conditions: SK-OV-3 cells
How it was run: as §1

[6] = system: MCF7; test: High-throughput calcein AM cytotoxicity assay, MCF7; assay type: cell-based, human; conditions: MCF7 cells
Excerpt: as §2

[7] = system: Hep3B; test: High-throughput calcein AM cytotoxicity assay, Hep3B; assay type: cell-based, human; conditions: Hep 3B cells
Excerpt: as §2

[8] = system: A549; test: High-throughput calcein AM cytotoxicity assay, A549; assay type: cell-based, human; conditions: A549 cells
Excerpt: as §2

[9] = system: HCT-116; test: High-throughput calcein AM cytotoxicity assay, HCT-116; assay type: cell-based, human; conditions: HCT-116 cells
Excerpt: as §2

[10] = system: Du145; test: High-throughput calcein AM cytotoxicity assay, Du145; assay type: cell-based, human; conditions: Du145 cells
Excerpt: as §2

[11] = NmuMG mouse mammary normal epithelial control line, read-out: IC50, NmuMG
[12] = NmuMG cells (mouse mammary normal epithelial control line), read-out: IC50

Compound | pIC50 [1, 11] | pIC50 ([2]; read-out: IC50, NCI-H460) | pIC50 ([3]; read-out: IC50, SF-268) | pIC50 ([4]; read-out: IC50, NCI/ADR-RES) | pIC50 ([5]; read-out: IC50, SK-OV-3) | pIC50 ([6]; read-out: IC50, MCF7) | pIC50 ([7]; read-out: IC50, Hep 3B) | pIC50 ([8]; read-out: IC50, A549) | pIC50 ([9]; read-out: IC50, HCT-116) | pIC50 ([10]; read-out: IC50, Du145) | pIC50 [1, 12] | pIC50 ([2]; read-out: IC50) | pIC50 ([3]; read-out: IC50) | pIC50 ([4]; read-out: IC50) | pIC50 ([5]; read-out: IC50) | pIC50 ([6]; read-out: IC50) | pIC50 ([7]; read-out: IC50) | pIC50 ([8]; read-out: IC50) | pIC50 ([9]; read-out: IC50) | pIC50 ([10]; read-out: IC50)
CON(C1CCC2(C)C(CCC3C2CCC2(C)C(C4=CC(=O)OC4)CCC32O)C1)C1OC(CO)C(O)C(O)C1NC(C)=O [34β, N-acetyl-D-galactosaminoside] | < 4.60 | 4.70 | < 4.60 | 5.19 | 4.77 | < 4.60 | 4.77 | < 4.60 | < 4.60 | < 4.60 | – | – | – | – | – | – | – | – | – | –
CON(C1CCC2(C)C(CCC3C2CCC2(C)C(C4=CC(=O)OC4)CCC32O)C1)C1OC(CO)C(O)C(O)C1O [18α, D-alloside] | < 4.60 | < 4.60 | < 4.60 | < 4.60 | < 4.60 | < 4.60 | < 4.60 | < 4.60 | < 4.60 | < 4.60 | – | – | – | – | – | – | – | – | – | –
CON([C@H]1CC[C@@]2(C)[C@H](CC[C@@H]3[C@@H]2CC[C@]2(C)[C@@H](C4=CC(=O)OC4)CC[C@]32O)C1)[C@H]1OC[C@H](O)[C@@H](O)[C@H]1O [14β, L-lyxoside] | 6.05 | 5.30 | 5.96 | 6.14 | 5.38 | 5.35 | 6.22 | 6.15 | 5.10 | 5.62 | – | – | – | – | – | – | – | – | – | –
CON([C@H]1CC[C@@]2(C)[C@H](CC[C@@H]3[C@@H]2CC[C@]2(C)[C@@H](C4=CC(=O)OC4)CC[C@]32O)C1)[C@H]1O[C@@H](CO)[C@H](O)[C@@H](O)[C@H]1O [26β, L-mannoside] | 5.89 | 5.80 | 5.68 | 5.32 | 5.51 | 5.52 | 5.70 | 5.77 | 5.38 | 5.70 | – | – | – | – | – | – | – | – | – | –
CON(C1CCC2(C)C(CCC3C2CCC2(C)C(C4=CC(=O)OC4)CCC32O)C1)C1OC(CO)C(O)C(O)C1NC(C)=O [34α, N-acetyl-D-galactosaminoside] | – | – | – | – | – | – | – | – | – | – | < 4.60 | < 4.60 | < 4.60 | < 4.60 | < 4.60 | < 4.60 | < 4.60 | < 4.60 | < 4.60 | < 4.60
CON(C1CCC2(C)C(CCC3C2CCC2(C)C(C4=CC(=O)OC4)CCC32O)C1)C1OC(C)C(O)C(O)C1O [7α, L-fucoside] | < 4.60 | < 4.60 | < 4.60 | < 4.60 | < 4.60 | < 4.60 | < 4.60 | < 4.60 | < 4.60 | < 4.60 | – | – | – | – | – | – | – | – | – | –
CON(C1CCC2(C)C(CCC3C2CCC2(C)C(C4=CC(=O)OC4)CCC32O)C1)C1OC(C)C(O)C(O)C1O [8α, D-fucoside] | < 4.60 | < 4.60 | < 4.60 | < 4.60 | < 4.60 | < 4.60 | < 4.60 | < 4.60 | < 4.60 | < 4.60 | – | – | – | – | – | – | – | – | – | –
CON([C@H]1CC[C@@]2(C)[C@H](CC[C@@H]3[C@@H]2CC[C@]2(C)[C@@H](C4=CC(=O)OC4)CC[C@]32O)C1)[C@H]1O[C@@H](CO)[C@H](O)[C@H](O)[C@@H]1O [17β, L-alloside] | 6.48 | 6.16 | 6.40 | 6.80 | 6.15 | 6.05 | 6.10 | 6.62 | 6.30 | 6.10 | – | – | – | – | – | – | – | – | – | –
CON(C1CCC2(C)C(CCC3C2CCC2(C)C(C4=CC(=O)OC4)CCC32O)C1)C1OC(C)C(O)C(O)C1O [11β, 6-deoxy-D-glucoside] | < 4.60 | 6.00 | 5.60 | 6.02 | 5.40 | 5.72 | 5.36 | 5.92 | 5.64 | 5.22 | – | – | – | – | – | – | – | – | – | –
CON(C1CCC2(C)C(CCC3C2CCC2(C)C(C4=CC(=O)OC4)CCC32O)C1)C1OC(C)C(O)C(O)C1O [11α, 6-deoxy-D-glucoside] | < 4.60 | < 4.60 | < 4.60 | < 4.60 | < 4.60 | < 4.60 | < 4.60 | < 4.60 | < 4.60 | < 4.60 | – | – | – | – | – | – | – | – | – | –
CON(C1CCC2(C)C(CCC3C2CCC2(C)C(C4=CC(=O)OC4)CCC32O)C1)C1OC(CO)C(O)C(O)C1O [21α, L-galactoside] | < 4.60 | < 4.60 | < 4.60 | < 4.60 | < 4.60 | < 4.60 | < 4.60 | < 4.60 | < 4.60 | < 4.60 | – | – | – | – | – | – | – | – | – | –
C[C@]12CC[C@H](O[C@@H]3O[C@H](CO)[C@@H](O)[C@H](O)[C@H]3O)C[C@H]1CC[C@@H]1[C@@H]2CC[C@]2(C)[C@@H](C3=CC(=O)OC3)CC[C@]12O [43β, O-D-glucoside] | < 4.60 | 6.41 | 6.66 | 6.72 | 6.40 | 6.15 | 6.68 | 6.54 | 6.22 | 6.66 | – | – | – | – | – | – | – | – | – | –
CON(C1CCC2(C)C(CCC3C2CCC2(C)C(C4=CC(=O)OC4)CCC32O)C1)C1OC(CO)C(OC2OC(CO)C(O)C(O)C2O)C(O)C1O (stereo not drawn) [36α, lactoside] | – | – | – | – | – | – | – | – | – | – | < 4.60 | < 4.60 | < 4.60 | < 4.60 | < 4.60 | < 4.60 | < 4.60 | < 4.60 | < 4.60 | < 4.60
CON(C1CCC2(C)C(CCC3C2CCC2(C)C(C4=CC(=O)OC4)CCC32O)C1)C1OCC(O)C(O)C1O [32α, L-arabinoside] | – | – | – | – | – | – | – | – | – | – | < 4.60 | < 4.60 | < 4.60 | < 4.60 | < 4.60 | < 4.60 | < 4.60 | < 4.60 | < 4.60 | < 4.60
CON(C1CCC2(C)C(CCC3C2CCC2(C)C(C4=CC(=O)OC4)CCC32O)C1)C1OCC(O)C(O)C1O [6α, D-riboside] | < 4.60 | < 4.60 | < 4.60 | < 4.60 | < 4.60 | < 4.60 | < 4.60 | < 4.60 | < 4.60 | < 4.60 | – | – | – | – | – | – | – | – | – | –
CON(C1CCC2(C)C(CCC3C2CCC2(C)C(C4=CC(=O)OC4)CCC32O)C1)C1OC(CO)C(O)C(O)C1O [17α, L-alloside] | < 4.60 | < 4.60 | < 4.60 | < 4.60 | < 4.60 | < 4.60 | < 4.60 | < 4.60 | < 4.60 | < 4.60 | – | – | – | – | – | – | – | – | – | –
